Data published in PubChem BioAssay (NCI).
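Following 48 hours of exposure in 96-well plates, responses at five concentrations were used to interpolate endpoints linearly. Here, GI50 denotes the concentration required for 50% inhibition of growth. TGI denotes the concentration required for complete inhibition of growth.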

How the values were obtained:
Assay in all cases: inhibition of tumour cell growth, NCI panel, 48 h
HCT-15 colon = system: HCT-15 colon
HOP-92 NSCLC = system: HOP-92 NSCLC
MOLT-4 leukemia = system: MOLT-4 leukemia
OVCAR-3 ovarian = system: OVCAR-3 ovarian
OVCAR-8 ovarian = system: OVCAR-8 ovarian
RXF 393 renal = system: RXF 393 renal
TK-10 renal = system: TK-10 renal
U251 CNS = system: U251 CNS
NCI-H226 lung = system: NCI-H226 lung
HS 578T breast = system: HS 578T breast

Compound | GI50 (HCT-15 colon) [µM] | TGI (HCT-15 colon) [µM] | GI50 (HOP-92 NSCLC) [µM] | TGI (HOP-92 NSCLC) [µM] | GI50 (MOLT-4 leukemia) [µM] | TGI (MOLT-4 leukemia) [µM] | GI50 (OVCAR-3 ovarian) [µM] | TGI (OVCAR-3 ovarian) [µM] | GI50 (OVCAR-8 ovarian) [µM] | TGI (OVCAR-8 ovarian) [µM] | GI50 (RXF 393 renal) [µM] | TGI (RXF 393 renal) [µM] | GI50 (TK-10 renal) [µM] | TGI (TK-10 renal) [µM] | GI50 (U251 CNS) [µM] | TGI (U251 CNS) [µM] | TGI (NCI-H226 lung) [µM] | GI50 (HS 578T breast) [µM] | TGI (HS 578T breast) [µM] | GI50 (NCI-H226 lung) [µM]
CC(=O)C(=CN1CCN(C(=O)c2ccco2)C1=S)C(C)=O | 2.16 | 5.55 | 11.7 | 46 | 8.2 | > 100 | 11.4 | 35.9 | 8.15 | 45.1 | 1.84 | 6.24 | 4.19 | 14.3 | 4.84 | 23.6 |  |  |  | 
C/C(CC(=O)NCCc1ccccc1)=N\NC(=O)C[n+]1ccccc1 |  | > 100 |  | > 100 |  | > 100 |  | > 100 |  | > 100 |  | > 100 |  | > 100 |  | > 100 | > 100 |  |  | 
COc1ccc(C(=O)COc2ccc(/C=C3\COc4ccc(OC)cc4C3=O)cc2)cc1 | 22.3 | > 100 |  |  | 9.36 | 51.6 | 21 | 62.2 | 18.4 | 66.5 | 21.2 | 47.6 | 19.1 | 48.7 | 13.4 | 31.2 | > 100 | 10.7 | 34.2 | 54.7
O=c1c2cc(Br)cc(Br)c2nc(CCCl)n1CCO |  |  |  | > 100 |  | > 100 |  | > 100 |  | > 100 |  | > 100 |  | > 100 |  | > 100 | > 100 |  |  | 
COc1cccc2c(=O)c3c(sc12)c(N1CCNCC1)nc1ccccc13 | 1.53 | 3.09 | 1.24 | 2.73 |  |  | 1.67 | 3.12 | 2.43 | 6.5 | 1.53 | 3.05 | 1.85 | 3.44 |  |  | 3.18 | 1.7 | 3.71 | 1.58
COc1cc2[nH]c(C(=O)c3cc(OC)c(OC)c(OC)c3)c(N)c2cc1C#CC1CC1 | 2.3 | > 100 | 0.622 | 94.5 | 4.32 | > 100 | 1.53 | 5.74 | 5.3 | > 100 |  |  | 40 | > 100 | 4.74 | > 100 | > 100 | 3.75 | > 100 | 22.4
C1C[OH+]CC[OH+]CC[OH+]CC[OH+]CC[OH+]1.[Cl-].[V] | > 100 | > 100 | 34.3 | > 100 | > 100 | > 100 | 58.2 | > 100 | > 100 | > 100 | 18.1 | 36.9 | 83.5 | > 100 | 50.4 | > 100 | > 100 |  |  | 28.1
CC(CO)(CO)NCCCCn1ccc2c1C(=O)c1c(c(O)c3ccccc3c1O)C2=O |  |  | 5.73 | 22.7 |  |  | 5.78 | 29.1 | 3.48 | 12 | 4.49 | 31.7 | 1.51 | 4.57 |  |  |  | 30.3 | 73.4 | 
COc1ccc(OC)c2c(C(=O)O)c(Cc3ccccc3)ccc12 |  | > 100 |  |  |  | > 100 |  | > 100 |  | > 100 |  | > 100 |  | > 100 |  | > 100 | > 100 |  |  | 
S=C1OC2CCCC[C@H]2O1 (stereo partly drawn) |  |  |  | > 100 |  | > 100 |  | > 100 |  | > 100 |  | > 100 |  | > 100 |  | > 100 | > 100 |  |  | 
O=C1CSC(/C(=N/Nc2ccccc2)c2nc3ccccc3[nH]2)=N1 |  | > 100 |  | 49.7 |  |  |  | 73.2 |  | > 100 |  |  |  | > 100 |  | > 100 | 59.7 |  |  | 
c1ccc(C2Nc3ccccc3C3OCCCC23)cc1 (stereo not drawn) |  | > 100 |  | 70.5 |  | > 100 |  |  |  | 44.3 |  | 50.4 |  |  |  | 38.3 | 68.3 |  |  | 
CSC(C1c2ccccc2N(c2ccc(C)cc2)c2[nH]c(=O)n(C)c(=O)c21)S(=O)(=O)c1ccc(C)cc1 (stereo not drawn) |  |  |  | > 100 |  | > 100 |  | > 100 |  | > 100 |  |  |  | > 100 |  | > 100 | > 100 |  |  | 
CCCCCCCCCCCC(=O)OCC1OC(OC)C(NC(=O)N(CCCl)N=O)C(O)C1O (stereo not drawn) |  | 96.1 |  |  |  | 16.1 |  | 33.4 |  | 41 |  | 26.4 |  | 61 |  | 26.1 | 59.3 |  |  | 
COc1cc(NC(C)CCCN)c2nccc(C)c2c1 (stereo not drawn) |  | 49.7 |  | > 100 |  |  |  | 67.9 |  |  |  |  |  | 63.5 |  | 56.8 |  |  | 64.3 | 
CN(CCC#N)c1ccc(/C=C(\C#N)c2ccc(Br)cc2)cc1 | 2.9 | > 100 | 2.52 | > 100 |  |  |  |  | > 100 | > 100 | 3.37 | > 100 | > 100 | > 100 |  |  | > 100 | > 100 | > 100 | > 100
COc1ccc2nc(NC(=O)C(=O)C(C#N)c3ccc([N+](=O)[O-])cc3)sc2c1 (stereo not drawn) |  | > 100 |  | > 100 |  | > 100 |  | > 100 |  | > 100 |  | > 100 |  | > 100 |  | > 100 | > 100 |  |  | 
O=C1OC2CCCC[C@@H]2C2C[C@]34CCCCC3[C@@H](C(=O)O4)C12 (stereo partly drawn) |  | > 100 |  | > 100 |  | > 100 |  | > 100 |  | > 100 |  | > 100 |  | > 100 |  | > 100 | > 100 |  |  | 
